How the values were obtained:
[1] = target: VL2-deleted mutant of the PH domain of Akt (Homo sapiens, UniProt P31749); test: Surface plasmon resonance binding, VL2-deleted Akt PH domain; conditions: SPR
Protocol: Binding experiments were performed using a Biacore T100 system (GE Healthcare, Piscataway, N.J.). The GST-PH domain fusion proteins were immobilized on a CM5 S Sensorchip using Biacore's Amine Coupling Kit to a level of 17,000 response units. VE5 compounds and di-octanoyl PIP3 at concentrations ranging from 0.1 to 100 μM and 1 to 20 μm, respectively, were injected at a high flow rate (30 μL/min) over the biosensor surface for binding analyses. DMSO concentrations in all samples and running buffer were 1% (v/v) or less. Data were analyzed using Biacore T100 Evaluation Software.

[2] = tested on: PDK-1 membrane localization; test: Immunofluorescence, membrane localization of PDK-1 at higher concentrations; format: cell-based; conditions: 6 hours of exposure
Protocol: Cells were stained for endogenous PH domain-containing proteins (Akt, PHLPP, PDK-1, ILK, BTK) by incubation with specific antibodies (1:100), followed by incubation with the Alexa Fluor 555-conjugated goat anti-rabbit or Alexa Fluor 488-conjugated goat anti-mouse IgG (1:200) at room temperature for 2 hours. Both primary and secondary antibodies were diluted in incubation buffer containing 0.1% Triton X-100 and 0.2% bovine serum albumin in PBS. The cells were washed in PBS after each step and mounted using […] mounting medium supplemented with DAPI (Vector Laboratories Inc., Burlingame, Calif.). The slides were allowed to set for at least 4 hours before confocal images were acquired using a Zeiss LSM 510 inverted confocal laser scanning microscope operated with Zeiss LSM 510 software. Image analysis was performed using ImageJ (NIH) software.

[3] = tested on: PC-3-luc xenograft tumors; test: PC-3-luc subcutaneous xenograft in athymic nude mice; format: in vivo; conditions: 50 mg/kg daily intraperitoneal, 21 days
Protocol: (§1) Male athymic nude mice (Hsd:Athymic Nude-Foxn1^nu/nu, 5-7 weeks of age) were purchased from Harlan Laboratories and group-housed under conditions of constant photoperiod (12 hours light: 12 hours dark) with ad libitum access to sterilized food and water. Ectopic tumors were established in athymic nude mice by subcutaneous injection of 1×10^6 PC-3-luc or 2×10^6 LNCaP-abl cells in a total volume of 0.1 mL serum-free medium containing 50% Matrigel (BD Biosciences). The establishment and growth of tumors were monitored weekly by measurement with calipers (tumor volume=width^2×length×0.52) and bioluminescence (PC-3-luc) using the IVIS™ imaging system (Xenogen Corporation, Alameda, Calif.). For bioluminescent imaging, mice anesthetized with isoflurane were imaged at 15, 20 and 25 min after intraperitoneal administration of firefly luciferin (150 mg/kg; Caliper Life Sciences) to capture maximal luminescence. Data acquisition and analysis were achieved using the Living Image® software (Xenogen). […] Body weights and tumor burdens were measured weekly. At the study endpoint, mice were euthanized, and blood was collected by cardiac puncture from all mice and submitted to The Ohio State University Comparative Pathology and Mouse Phenotyping Shared Resource for determination of complete blood counts and serum chemistry.

[4] = tested on: LNCaP-abl xenograft tumors; test: LNCaP-abl subcutaneous xenograft in athymic nude mice; format: in vivo
Protocol: as §1

[5] = Toxicologic evaluation in PC-3-luc tumor-bearing mice; format: in vivo
Protocol: as §1

[6] = 50 mg/kg daily intraperitoneal, 21 days
[7] = values within the normal ranges for mice

VL2-deleted mutant of the PH domain of Akt, sequence (P31749 whole entry, looked up, stated change not applied, the tested form may be a part): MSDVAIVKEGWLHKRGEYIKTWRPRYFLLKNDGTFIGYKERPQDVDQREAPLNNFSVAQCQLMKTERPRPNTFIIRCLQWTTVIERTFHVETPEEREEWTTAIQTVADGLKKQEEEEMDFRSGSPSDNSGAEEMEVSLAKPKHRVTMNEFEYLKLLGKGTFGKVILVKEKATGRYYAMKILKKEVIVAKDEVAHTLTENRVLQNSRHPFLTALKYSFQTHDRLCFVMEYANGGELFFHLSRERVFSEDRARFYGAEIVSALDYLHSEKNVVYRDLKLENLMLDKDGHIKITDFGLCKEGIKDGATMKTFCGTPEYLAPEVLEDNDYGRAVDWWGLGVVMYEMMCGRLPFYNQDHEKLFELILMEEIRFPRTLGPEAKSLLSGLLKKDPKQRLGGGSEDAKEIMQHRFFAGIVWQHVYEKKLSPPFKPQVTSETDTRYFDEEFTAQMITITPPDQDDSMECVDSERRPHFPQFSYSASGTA

## Cc1c(O)cc2c(c1C)O[C@](C)(CCCC(C)C)CC2 [γ-VE5, (R)-2,7,8-trimethyl-2-(4-methylpentyl)-chroman-6-ol]
[1]
  Kd: 30 ± 4 µM
[2]; 25 μM
  membrane-associated PDK-1, share of total immunofluorescence signal: approximately 50%
[2]; 35 μM
  membrane-associated PDK-1, share of total immunofluorescence signal: greater than 90%
[3]; P<0.05
  PC-3-luc tumor growth relative to vehicle-treated controls (bioluminescence): inhibited PC-3-luc tumor growth
[3]; PC-3-luc tumors
  intratumoral phosphorylation of Akt, MDM2 and IKKα: suppressed phosphorylation of Akt at Ser^473 without disrupting that at Thr^308
[4]; [6]
  LNCaP-abl tumor growth relative to vehicle-treated controls: significantly inhibited tumor growth
[4]; LNCaP-abl tumors, relative to vehicle-treated controls
  intratumoral phosphorylation of Akt at Ser473, MDM2 and IKKα: reduced phosphorylation
[5]; [6]
  gross pathology findings at necropsy: abdominal adhesions and variable amounts of clear fluid within the abdomen
[5]; 50 mg/kg daily intraperitoneal, 21 days, vehicle −0.2 grams
  change of mean body weight over the treatment period: −0.7 grams
[5]; 50 mg/kg daily intraperitoneal, 21 days, vehicle −0.7%
  change of mean body weight over the treatment period: −2.3%
[5]; [7]
  hematological findings relative to controls: reductions in hematocrit, red blood cell numbers and hemoglobin concentration
  serum chemistry findings: increase in aspartate aminotransferase and a decrease in serum albumin concentrations

From US20140031388A1, “AKT INACTIVATION BY TOCOPHERYL DERIVATIVES” (priority 2012, published 2014)
